Test results published in patent US11873290B2, “Pyridazinone compounds and uses thereof” (Edgewise Therapeutics, Inc., priority 2018, dated 2024).

Target: skeletal myofibrils (myosin ATPase activity)
Experiment: Skeletal Myofibril ATPase Assay
Type: biochemical
Settings: PK-LDH coupled, absorbance at 340 nm
In short: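 Skeletal myofibril ATPase measured by PK-LDH-coupled NADH depletion at 340 nm, read every 1.5–2 min for 1 h; pCa buffer with PIPES/CaCl2/EGTA, pH 7.0. Rate taken as max–min absorbance, normalised to 1% DMSO vehicle (100%) and no change (0%); IC50 from four-parameter fit, bottom ≥0.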

IC50 [µM]	Compound
< 10	CCOc1ccc(-c2ccc(=O)n(Cc3nc(-c4ccccn4)no3)n2)cc1 [Compound 304, 6-(4-ethoxyphenyl)-2-((3-(pyridin-2-yl)-1,2,4-oxadiazol-5-yl)methyl)pyridazin-3(2H)-one]
< 10	O=c1ccc(-c2cnc(OCC(F)(F)F)nc2)nn1Cc1cc(C2CC2)no1 [Compound 31, 2-((3-cyclopropylisoxazol-5-yl)methyl)-6-(2-(2,2,2-trifluoroethoxy)pyrimidin-5-yl)pyridazin-3(2H)-one]
< 10	COc1cncc(Cn2nc(-c3cnc(OCC(F)(F)F)nc3)ccc2=O)c1 [Compound 128, 2-((5-methoxypyridin-3-yl)methyl)-6-(2-(2,2,2-trifluoroethoxy)pyrimidin-5-yl)pyridazine-3(2H)-one]
< 10	Cn1cc(Cn2nc(-c3cnc(OCC(F)(F)F)nc3)ccc2=O)cn1 [Compound 58, 2-((1-methyl-1H-pyrazol-4-yl)methyl)-6-(2-(2,2,2-trifluoroethoxy)pyrimidin-5-yl)pyridazin-3(2H)-one]
< 10	O=c1ccc(-c2cnc(OCC(F)(F)F)nc2)nn1Cc1cnc(C(F)F)s1 [Compound 105]
< 10	Cc1ncc(Cn2nc(-c3cnc(OCC(F)(F)F)nc3)ccc2=O)o1 [Compound 60, 2-((2-methyloxazol-5-yl)methyl)-6-(2-(2,2,2-trifluoroethoxy)pyrimidin-5-yl)pyridazin-3(2H)-one]
< 10	O=c1ccc(-c2cnc(NC34CC(C3)C4)nc2)nn1Cc1cncc(Cl)c1 [Compound 75, 6-(2-(bicyclo[1.1.1]pentan-1-ylamino)pyrimidin-5-yl)-2-((5-chloropyridin-3-yl)methyl)pyridazin-3(2H)-one]
< 10	CC1CCCN1c1ncc(-c2ccc(=O)n(Cc3cncc(F)c3)n2)cn1 (stereo not drawn) [Compound 28, 2-((5-fluoropyridin-3-yl)methyl)-6-(2-(2-methylpyrrolidin-l-yl)pyrimidin-5-yl)pyridazin-3(2H)-one]
< 10	O=c1ccc(-c2cnc(OCC(F)(F)F)nc2)nn1Cc1nnc(-c2ccccn2)s1 [Compound 38, 2-((5-(pyridin-2-yl)-1,3,4-thiadiazol-2-yl)methyl)-6-(2-(2,2,2-trifluoroethoxy)pyrimidin-5-yl)pyridazin-3(2H)-one]
< 10	Cc1ccc(-c2ccc(=O)n(Cc3nc(-c4ccccc4C)no3)n2)cc1 [Compound 312, 6-(p-tolyl)-2-((3-(o-tolyl)-1,2,4-oxadiaxol-5-yl)methyl)pyridazin-3(2H)-one]
< 10	NC(=O)c1cc(Cn2nc(-c3cnc(OCC(F)(F)F)nc3)ccc2=O)on1 [Compound 32, 5-((6-oxo-3-(2-(2,2,2-trifluoroethoxy)pyrimidin-5-yl)pyridazin-1(6H)-yl)methyl)isoxazole-3-carboxamide]
< 10	Cc1ncc(Cn2nc(-c3cnc(OCC(F)(F)F)nc3)ccc2=O)cc1F [Compound 52, 2-((5-fluoro-6-methylpyridin-3-yl)methyl)-6-(2-(2,2,2-trifluoroethoxy)pyrimidin-5-yl)pyridazin-3(2H)-one]
< 10	O=c1ccc(-c2cnc(OCC3(F)COC3)nc2)nn1Cc1nnc(-c2ccccc2)s1 [Compound 92, 6-(2-((3-fluorooxetan-3-yl)methoxy)pyrimidin-5-yl)-2-((5-phenyl-1,3,4-thiadiazol-2-yl)methyl)pyridazin-3(2H)-one]
10 to 100	COc1ccc(-c2ccc(=O)n(Cc3cc(=O)n4ccccc4n3)n2)cc1 [Compound 307, 2-((3-(4-methoxyphenyl)-6-oxopyridazin-1(6H)-yl)methyl)-4H-pyrido[1.2-a]pyrimidin-4-one]
10 to 100	O=c1ccc(-c2ccc(OC(F)F)cc2)nn1Cc1nnc(-c2ccccc2)o1 [Compound 212, 6-(4-(difluoromethoxy)phenyl)-2-((5-phenyl-1,3,4-oxadiazol-2-yl)methyl)pyridazin-3(2H)-one]
< 10	O=c1ccc(-c2cnc(N3CCC[C@@H]3C(F)(F)F)nc2)nn1Cc1cncc(F)c1 [Compound 73, (R)-2-((5-fluoropyridin-3-yl)methyl)-6-(2-(2-(trifluoromethyl)pyrrolidin-1-yl)pyrimidin-5-yl)pyridazin-3(2H)-one]
10 to 100	O=c1ccc(-c2cnc(OCC(F)(F)F)nc2)nn1Cc1cnoc1 [Compound 85, 2-(isoxazol-4-ylmethyl)-6-(2-(2,2,2-trifluoroethoxy)pyrimidin-5-yl)pyridazin-3(2H)-one]
< 10	O=c1ccc(-c2cnc(OCC(F)(F)F)nc2)nn1Cc1cncc(F)n1 [Compound 118, 2-((6-fluoropyrazin-yl)methyl)-6-(2-(2,2,2-trifluoroethoxy)pyrimidin-5-yl)pyridazin-3(2H)-one]
> 100	O=c1ccc(-c2ccc(OC(F)F)cc2)nn1Cc1nnc(C(F)(F)F)s1 [Compound 229, 6-(4-(difluoromethoxy)phenyl)-2-((5-(trifluoromethyl)-1,3,4-thiadiazol-2-yl)methyl)pyridazin-3(2H)-one]
< 10	CC(F)(F)COc1ncc(-c2ccc(=O)n(Cc3cncc(F)c3)n2)cn1 [Compound 113, 6-(2-(2,2-difluoropropoxy)pyrimidin-5-yl)-2-((5-fluoropyridin-3-yl)methyl)pyridazine-3(2H)-one]

IC50 [µM]	Compound
> 100	O=c1ccc(-c2cnc(OCC(F)(F)F)nc2)nn1Cc1ccc[n+]([O-])c1 [Compound 80, 3-((6-oxo-3-(2-(2,2,2-trifluoroethoxy)pyrimidin-5-yl)pyridazin-1(6H)-yl)methyl)pyridine 1-oxide]
< 10	CSCCOc1ncc(-c2ccc(=O)n(Cc3cncc(F)c3)n2)cn1 [Compound 102]
< 10	COCCOc1ncc(-c2ccc(=O)n(Cc3cncc(F)c3)n2)cn1 [Compound 70, 2-((5-fluoropyridin-3-yl)methyl)-6-(2-(2-methoxyethoxy)pyrimidin-5-yl)pyridazine-3(2H)-one]
10 to 100	O=c1ccc(-c2ccc(OC(F)F)cc2)nn1Cc1ccc(Cl)cn1 [Compound 211, 2-((5-chloropyridin-2-yl)methyl)-6-(4-(difluoromethoxy)phenyl)-pyridazin-3(2H)-one]
< 10	CSc1ncc(-c2ccc(=O)n(Cc3cc(C)no3)n2)cn1 [Compound 65, 2-((3-methylisoxazol-5-yl)methyl)-6-(2-(methylthio)pyrimidin-5-yl)pyridazine-3(2H)-one]
> 100	Cc1cc(O)c(Cn2nc(-c3cnc(OCC(F)(F)F)nc3)ccc2=O)cn1 [Compound 86, 2-((4-hydroxy-6-methylpyridin-3-yl)methyl)-6-(2-(2,2,2-trifluoroethoxy)pyrimidin-5-yl)pyridazin-3(2H)-one]
< 10	O=c1ccc(-c2ccc(OC(F)F)nc2)nn1Cc1cncc(Cl)c1 [Compound 2]
< 10	CCc1cc(Cn2nc(-c3ccc(OC(F)F)cc3)ccc2=O)on1 [Compound 209, 6-(4-(difluoromethoxy)phenyl)-2-((3-ethylisoxazol-5 - yl)methyl)pyridazin-3(2H)-one]
> 100	O=c1ccc(-c2ccc(OC(F)F)cc2)nn1Cc1nnc(C(F)(F)F)[nH]1 [Compound 236, 6-(4-(difluoromethoxy)phenyl)-2-((5-(trifluoromethyl)-4H-1,2,4-triazol-3-yl)methyl)pyridazin-3(2H)-one]
10 to 100	N#Cc1cncc(Cn2nc(-c3ccc(OC(F)F)nc3)ccc2=O)c1 [Compound 57, 5-((3-(6-(difluoromethoxy)pyridin-3-yl)-6-oxopyridazin-1(6H)-yl)methyl)nicotinonitrile]
10 to 100	Cc1nnc(Cn2nc(-c3ccc(OC(F)F)cc3)ccc2=O)s1 [Compound 223, 6-(4-(difluoromethoxy)phenyl)-2-((5-methyl-1,3,4-thiadiazol-2-yl)methyl)pyridazin-3(2H)-one]
10 to 100	Cc1ccc(-c2ccc(=O)n(Cc3cc(=O)n4ccccc4n3)n2)cc1 [Compound 311, 2-((6-oxo-3-(p-tolyl)pyridazin-1(6H)-yl)methyl)-4H-pyrido[1,2-a]pyrimidin-4-one]
< 10	O=c1ccc(-c2cnc(OCC(F)(F)F)nc2)nn1Cc1cnc(C2CC2)s1 [Compound 100, 2-((2-cyclopropylthiazol-5-yl)methyl)-6-(2-(2,2,2-trifluoroethoxy)pyrimidin-5-yl)pyridazine-3(2H)-one]
< 10	CCCc1ncc(Cn2nc(-c3cnc(OCC(F)(F)F)nc3)ccc2=O)s1 [Compound 116, 2-((2-propylthiazol-5-yl)methyl)-6-(2-(2,2,2-trifluoroethoxy)pyrimidin-5-yl)pyridazine-3(2H)-one]
> 100	Cc1nnc(Cn2nc(-c3ccc(OC(F)F)cc3)ccc2=O)[nH]1 [Compound 227, 6-(4-(difluoromethoxy)phenyl)-2-((5-methyl-4H-1,2,4-triazol-3-yl)methyl)pyridazin-3(2H)-one]
< 10	O=c1ccc(-c2ccc(OC(F)F)cc2)nn1Cc1nc(-c2ccccc2)no1 [Compound 202, 6-(4-(difluoromethoxy)phenyl)-2-((3-phenyl-1,2,4-oxadiazol-5-yl)methyl)pyridazine-3(2H)-one]
10 to 100	Cc1nc(Cn2nc(-c3cnc(OCC(F)(F)F)nc3)ccc2=O)co1 [Compound 83, 2-((2-methyloxazol-4-yl)methyl)-6-(2-(2,2,2-trifluoroethoxy)pyrimidin-5-yl)pyridazin-3(2H)-one]
< 10	O=c1ccc(-c2cnc(OCC3CC3)nc2)nn1Cc1cncc(F)c1 [Compound 119, 6-(2-(cyclopropylmethoxy)pyrimidin-5-yl)-2-((5-fluoropyridin-3-yl)methyl)pyridazine-3(2H)-one]
< 10	O=c1ccc(-c2ccc(OC(F)F)nc2)nn1Cc1cncc(F)c1 [Compound 9]

Compound	IC50 [µM]
CC(C)COc1ncc(-c2ccc(=O)n(Cc3cncc(F)c3)n2)cn1 [Compound 110, 2-((5-fluoropyridin-3-yl)methyl)-6-(2-isobutoxypyrimidin-5-yl)pyridazine-3(2H)-one]	< 10
CCc1ncc(Cn2nc(-c3cnc(OCC(C)C)nc3)ccc2=O)s1 [Compound 124, 2-((2-ethylthiazol-5-yl)methyl)-6-(2-isobutoxypyrimidin-5-yl)pyridazine-3(2H)-one]	< 10
